Patent US9487506B2, “Mineralocorticoid receptor antagonists” (Merck Sharp & Dohme Corp., priority 2011, dated 2016)
pIC50: −log10 of the molar value.

These molecules were tested against T1, full-length human Mineralocorticoid Receptor (MR) (Homo sapiens, UniProt P08235) (assay: human MR NH Pro assay (PathHunter Protein:Protein interaction assay), MR antagonist activity). Conditions: PathHunter CHO-K1 cells overexpressing human MR; aldosterone 0.3 nM to about 1 nM; 6 hours at 37° C.; luminescence; read-out: IP (rating); IP is the inflection point for a given dose-response titration curve.
T1 construct: host or cells: PathHunter CHO-K1 cells
T1 sequence (P08235 1-984): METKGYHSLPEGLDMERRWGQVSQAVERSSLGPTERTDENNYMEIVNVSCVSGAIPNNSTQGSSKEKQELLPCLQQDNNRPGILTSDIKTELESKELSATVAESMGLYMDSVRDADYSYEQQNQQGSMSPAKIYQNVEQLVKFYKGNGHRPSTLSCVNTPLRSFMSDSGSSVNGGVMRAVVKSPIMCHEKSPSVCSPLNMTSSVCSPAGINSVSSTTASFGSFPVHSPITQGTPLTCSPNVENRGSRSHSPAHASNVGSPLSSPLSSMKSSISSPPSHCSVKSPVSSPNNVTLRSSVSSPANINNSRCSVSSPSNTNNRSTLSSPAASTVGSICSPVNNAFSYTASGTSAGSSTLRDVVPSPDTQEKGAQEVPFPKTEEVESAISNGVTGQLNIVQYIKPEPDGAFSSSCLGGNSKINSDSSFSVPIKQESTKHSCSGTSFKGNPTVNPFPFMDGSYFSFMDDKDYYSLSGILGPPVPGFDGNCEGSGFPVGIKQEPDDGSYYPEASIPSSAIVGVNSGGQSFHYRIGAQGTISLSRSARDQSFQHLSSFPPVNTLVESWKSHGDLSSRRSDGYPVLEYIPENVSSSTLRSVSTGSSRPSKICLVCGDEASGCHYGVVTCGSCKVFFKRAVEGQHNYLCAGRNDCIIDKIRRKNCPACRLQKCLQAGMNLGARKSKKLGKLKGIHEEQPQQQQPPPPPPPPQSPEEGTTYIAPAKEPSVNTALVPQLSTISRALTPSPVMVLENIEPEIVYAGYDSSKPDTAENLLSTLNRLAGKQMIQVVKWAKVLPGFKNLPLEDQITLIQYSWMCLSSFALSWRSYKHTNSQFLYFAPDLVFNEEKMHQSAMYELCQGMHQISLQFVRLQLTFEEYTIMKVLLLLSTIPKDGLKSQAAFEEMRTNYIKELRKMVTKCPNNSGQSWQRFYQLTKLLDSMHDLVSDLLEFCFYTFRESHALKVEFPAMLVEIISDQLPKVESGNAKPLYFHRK
Format: cell-based
Description: The activity of the compounds of the present invention regarding mineralocorticoid receptor antagonism can be evaluated using the following assay.
Assessment of MR Potency in HMR NH Pro Assay
The human MR NH Pro assay is a commercially available PathHunter™ Protein:Protein interaction assay (DiscoveRx; http://www.discoverx.com/nhrs/prod-nhrs.php) that measures the ability of compounds to antagonize full-length human Mineralocorticoid Receptor (MR) binding to a coactivator peptide. PathHunter™ CHO-K1 cells that overexpress human MR (Cat #93-0456C2, Lot No: 09B0913) were cultured in growth media (F12K w/Glutamine and phenol red (Gibco 11765-047) supplemented with 10% HI FBS (Gibco 16000); 0.25 mg/ml Hygromycin in PBS (Invitrogen 10687-010, 50 mg/ml); 100 I.U./mL and 100 μg/mL Pen/Strep (Gibco 15140-122); 0.6 mg/mL Geneticin (Gibco 10131-027).
Compounds were assessed for MR antagonist activity by incubating the cells with a titrating dose of compound in F12K w/Glutamine and phenol red culture media (Invitrogen 11765-047) supplemented with 1% Charcoal/Dextran Treated FBS (Hyclone #SH30068.01) and aldosterone (0.3 nM to about 1 nM) for 6 hours at 37° C. Cells were then treated with DiscoveRx detection reagent for 1 hour at room temperature and read using an Envision luminescence plate reader. % activity was measured relative to cells treated with aldosterone alone and IC50 values were calculated using ADA software.
Stock solution was prepared at 10 μM in DMSO and stored at −20° C. for assay, dilute in assay media to 1.8 or 6 nM (6× of final concentration=about 0.3 nM to about 1.0 nM)
5. Cell line: PathHunter CHO-K1 MR cells Cat #93-0456C2, Lot No: 09B0913, from operation liquid nitrogen stock.
3. The cells concentration was adjusted to 4×10^5 cells/mL.
4. Cells were (25 μL/well) added to the wells of a 384 well plate.
5. The plate was then incubated at 37° C. over night in a humidified incubator with 5% CO2.
6. Test compounds were titrated starting at 4.4 mM, 10-point titration in 1:3 dilution.
7. Aldosterone was diluted in assay media to 1.8 nM or 6 nM from 10 μM stock (final concentration to be about 0.3 nM to about 1.0 nM)
1. 10K exponentially growing cells/well (25 μL) were resuspended in assay media and plated into each well using the Multidrop (Thermo Electron) (use white wall, clear bottom assay plates (Costar #3570) and incubated overnight at 37° C., 5% CO2.
2. 0.25 μL 120× test compound (final DMSO concentration should be <1%) was added to each well n=2, 10 point titrations starting at 36.7 μM final concentration.
3. 5 μL of 6× agonist (final aldosterone concentration should be about 0.3 nM to about 1.0 nM) was added to all wells (using the PlateMate Plus; (ThermoFisher) (except those wells in columns 23 and 24)
4. 5 μL of assay media was added to all wells in column 23 and 24.
5. Cells were then incubated for 6 hrs at 37° C., 5% CO2.
6. 15 μL 3× DiscoveRx detection reagent was then added to each well.
7. Plates were incubated for 1 hour at room temperature in the dark.
8. Plates were read on Envision (PerkinElmer) luminesence plate reader and analyzed using ADA.

| Structure (SMILES) | pIC50 |
| --- | --- |
| CS(=O)(=O)Nc1cccc2c(C(CCC#N)c3ccc(Cl)cc3F)n[nH]c12 (single isomer, unassigned) [Example 2, N-{3-[1-(4-chloro-2-fluorophenyl)-3-cyanopropyl]-1H-indazol-7-yl}methanesulfonamide (Single Enantiomer)] | > 7.00 |
| CCC(c1ccc(Cl)cc1)(c1n[nH]c2c(NS(C)(=O)=O)cccc12)C(C)O (single isomer, unassigned; diastereoisomer a) [Compound 24A, N-(3-(3-(4-chlorophenyl)-2-hydroxypentan-3-yl)-1H-indazol-7-yl)methane sulfonamide(diastereoisomer A)] | > 7.00 |
| CCC(c1ccc(Cl)cc1)(c1n[nH]c2c(NS(C)(=O)=O)cccc12)C(C)O (single isomer, unassigned; diastereoisomer b) [Compound 24B] | > 7.00 |
| CCC(C#N)(c1ccc(Cl)cc1)c1n[nH]c2c([N+](=O)[O-])cccc12 (stereo not drawn) [Compound 22, 2-(4-chlorophenyl)-2-(7-nitro-1H-indazol-3-yl)butanenitrile] | 5.22 to 6.30 |
| CCC(C#N)(c1ccc(Cl)cc1)c1n[nH]c2c(NS(C)(=O)=O)cccc12 (stereo not drawn) [Compound 23, N-(3-(1-(4-chlorophenyl)-1-cyanopropyl)-1H-indazol-7-yl)methanesulfonamide] | 5.22 to 6.30 |
| CCC(CO)(c1ccc(Cl)cc1)c1n[nH]c2c(NS(C)(=O)=O)cccc12 (stereo not drawn) [Compound 25, N-(3-(2-(4-chlorophenyl)-1-hydroxybutan-2-yl)-1H-indazol-7-yl)methane sulfonamide] | > 7.00 |
| Fc1cc(Cl)ccc1Cc1n[nH]c2ccccc12 [Example 1, 3-(4-chloro-2-fluorobenzyl)-1H-indazole] | 5.22 to 6.30 |
| N#CCCC(c1ccc(Cl)cc1F)c1n[nH]c2c(-c3cccnc3)cccc12 (stereo not drawn) [Example 3, 4-(4-chloro-2-fluorophenyl)-4-(7-pyridin-3-yl-1H-indazol-3-yl)butanenitrile] | 5.22 to 6.30 |
| N#CCCC(c1ccc(Cl)cc1F)c1n[nH]c2c(-c3ccncc3)cccc12 (stereo not drawn) [Example 4, 4-(4-chloro-2-fluorophenyl)-4-(7-pyridin-4-yl-1H-indazol-3-yl)butanenitrile] | 5.22 to 6.30 |
| CS(=O)(=O)Nc1cccc2c(C(CCCO)c3ccc(Cl)cc3F)n[nH]c12 (stereo not drawn) [Example 5, N-{3-[1-(4-chloro-2-fluorophenyl)-4-hydroxybutyl]-1H-indazol-7-yl}methanesulfonamide] | 6.30 to 7.00 |
| CS(=O)(=O)Nc1cccc2c(C(CC#N)c3ccc(Cl)cc3F)n[nH]c12 (stereo not drawn) [Example 6, N-{3-[1-(4-chloro-2-fluorophenyl)-2-cyanoethyl]-1H-indazol-7-yl}methanesulfonamide] | 5.22 to 6.30 |
| N#CCCC(c1ccc(Cl)cc1F)c1n[nH]c2c(NS(=O)(=O)C3CC3)cccc12 (stereo not drawn) [Example 7, N-{3-[1-(4-chloro-2-fluorophenyl)-3-cyanopropyl]-1H-indazol-7-yl}cyclopropanesulfonamide] | 5.22 to 6.30 |
| Cc1noc(CCC(c2ccc(Cl)cc2F)c2n[nH]c3c(NS(C)(=O)=O)cccc23)n1 (stereo not drawn) [Example 8, N-{3-[1-(4-chloro-2-fluorophenyl)-3-(3-methyl-1,2,4-oxadiazol-5-yl)propyl]-1H-indazol-7-yl}methanesulfonamide] | 5.22 to 6.30 |
| CC(=O)CCC(c1ccc(Cl)cc1F)c1n[nH]c2c(NS(C)(=O)=O)cccc12 (stereo not drawn) [Example 9, N-{3-[1-(4-chloro-2-fluorophenyl)-4-oxopentyl]-1H-indazol-7-yl}methanesulfonamide] | 5.22 to 6.30 |
| CC(C)(O)CCC(c1ccc(Cl)cc1F)c1n[nH]c2c(NS(C)(=O)=O)cccc12 (stereo not drawn) [Example 10, n-{3-[1-(4-chloro-2-fluorophenyl)-4-hydroxy-4-methylpentyl]-1H-indazol-7-yl}methanesulfonamide] | 5.22 to 6.30 |
| CCC(O)(CC)CCC(c1ccc(Cl)cc1F)c1n[nH]c2c(NS(C)(=O)=O)cccc12 (stereo not drawn) [Example 11, N-{3-[1-(4-chloro-2-fluorophenyl)-4-hydroxy-4-ethylhexyl]-1H-indazol-7-yl}methanesulfonamide] | 5.22 to 6.30 |

Now from value to molecule:

| pIC50 | Structure (SMILES) |
| --- | --- |
| 5.22 to 6.30 | N#CCCC(c1ccc(Cl)cc1F)c1n[nH]c2ccccc12 (stereo not drawn) [Example 12, 4-(4-chloro-2-fluorophenyl)-4-(1H-indazol-3-yl)butanenitrile] |
| 5.22 to 6.30 | Cn1nc(C(CCC#N)c2ccc(Cl)cc2F)c2ccccc21 (stereo not drawn) [Example 13, 4-(4-chloro-2-fluorophenyl)-4-(1-methyl-1H-indazol-3-yl)butanenitrile] |
| 5.22 to 6.30 | CCn1nc(C(CCC#N)c2ccc(Cl)cc2F)c2ccccc21 (stereo not drawn) [Example 14, 4-(4-chloro-2-fluorophenyl)-4-(1-ethyl-1H-indazol-3-yl)butanenitrile] |
| 5.22 to 6.30 | CCCn1nc(C(CCC#N)c2ccc(Cl)cc2F)c2ccccc21 (stereo not drawn) [Example 15, 4-(4-chloro-2-fluorophenyl)-4-(1-propyl-1H-indazol-3-yl)butanenitrile] |
| 5.22 to 6.30 | N#CCCC(c1ccc(Cl)cc1F)c1nn(Cc2ccccc2)c2ccccc12 (stereo not drawn) [Example 16, 4-(1-benzyl-1H-indazol-3-yl)-4-(4-chloro-2-fluorophenyl)butanenitrile] |
| 5.22 to 6.30 | COC(=O)Cn1nc(C(CCC#N)c2ccc(Cl)cc2F)c2ccccc21 (stereo not drawn) [Example 17A, methyl {3-[1-(4-chloro-2-fluorophenyl)-3-cyanopropyl]-1H-indazol-1-yl}acetate] |
| 5.22 to 6.30 | CC(C)(C)OC(=O)Cn1nc(C(CCC#N)c2ccc(Cl)cc2F)c2ccccc21 (stereo not drawn) [Example 17B, tert-Butyl {3-[1-(4-chloro-2-fluorophenyl)-3-cyanopropyl]-1H-indazol-1-yl}acetate] |
| 5.22 to 6.30 | COC(=O)CCn1nc(C(CCC#N)c2ccc(Cl)cc2F)c2ccccc21 (stereo not drawn) [Example 17C, Methyl 3-{3-[1-(4-chloro-2-fluorophenyl)-3-cyanopropyl]-1H-indazol-1-yl}propanoate] |
| 5.22 to 6.30 | CSCn1nc(C(CCC#N)c2ccc(Cl)cc2F)c2ccccc21 (stereo not drawn) [Example 17D, 4-(4-chloro-2-fluorophenyl)-4-{1-[(methyl-sulfanyl)-methyl]-1H-indazol-3-yl}-butanenitrile] |

Same assay, conditions: enantiomers from chiral SFC OJ-H separation of the racemate

| Structure (SMILES) | relative MR antagonist activity of the separated enantiomers |
| --- | --- |
| CS(=O)(=O)Nc1cccc2c(C(CCC#N)c3ccc(Cl)cc3F)n[nH]c12 (single isomer, unassigned) [Example 2, N-{3-[1-(4-chloro-2-fluorophenyl)-3-cyanopropyl]-1H-indazol-7-yl}methanesulfonamide (Single Enantiomer)] | more active |
| CS(=O)(=O)Nc1cccc2c(C(CCC#N)c3ccc(Cl)cc3F)n[nH]c12 (single isomer, unassigned) [second peak, N-{3-[1-(4-Chloro-2-fluorophenyl)-3-cyanopropyl]-1H-indazol-7-yl}methanesulfonamide] | less active |
